For data set [1], the system named is HIV, X4 (T-tropic) virus. Conditions: in humans; cited from earlier work.
A short description of data set [2]: Solubility of Formula I compound in aqueous media. The format is physicochemical. Particulars: aqueous media at a pH at or below 6.0. The text has this:
The Formula I compound in freebase form, in a mixture of dichloromethane and another solvent can be washed with an aqueous base such as 0.5N sodium hydroxide to remove traces of hydrazine. The Formula I compound can then be extracted into a dilute aqueous acid such as 1N hydrochlororic acid. […] If the pH of the aqueous solution is below 5, it can then be adjusted to 5-7, with a preferred pH being 6.0 for the removal of impurities. Non-polar organic impurities will remain in the organic layer. A number of solvents can be used, if desired, for further extraction of non-polar organic impurities including ethyl acetate, methyl t-butyl ether, tetrahydrofuran, dichloromethane and chloroform.

Data set [3] is described as follows: Solubility of compound I in organic crystallization solvents. The format is physicochemical. Conditions: organic solvent or mixture. As to the method: A crystallization solvent (solvent B) is then added which can include, but is not limited to the following, or mixtures of the following: tetrahydrofuran, ethyl acetate, cumene, isopropyl acetate, n-propyl acetate, dichloromethane, ethanol, isopropanol, methanol, isopropyl ether, diethyl ether and t-butyl methyl ether. A preferred solvent is isopropyl acetate. A sufficient volume of solvent B is added to typically reach a complete solvation of compound I at an elevated temperature. The elevated temperature will depend on the nature of the solvent, with a reflux condition being the highest temperature possible.
The crystalline compound I may also be isolated from a number of different solvent systems. Compound I is soluble at >600 mg/mL in 55° C. tetrahydrofuran, and can be recovered as crystalline material by cooling the solution. Similarly, compound I can be isolated as crystalline material from a hot solution of cumene. Compound I is very soluble in dichloromethane (>700 mg/mL), but can be precipitated as a crystalline material from the solution through the addition of diethyl ether. Ethyl acetate is an effective solvent for crystallization, with solubilities of compound I of ca. 150 mg/mL at 60° C. being achievable.

Converted amounts (≈) assume the structure as drawn. Where two headings read alike, the source gives them in different places.

The solubility is the dissolved amount per volume that the medium holds.

For the compound `c1cc(CN2CCCNCCNCCCNCC2)ccc1CN1CCCNCCNCCCNCC1` [AMD3100], in data set [1], the “effect on HIV viral load and X4 (T-tropic) virus levels” value is “reduce HIV viral load and X4 (T-tropic) virus levels”.

As to `NCCCCN(Cc1nc2ccccc2[nH]1)C1CCCc2cccnc21` (stereo not drawn) [Compound I, N′-(1H-benzimidazol-2-ylmethyl)-N′-(5,6,7,8-tetrahydro-quinolin-8-yl)-butane-1,4-diamine], the “solubility in aqueous media” value in data set [2] is “readily soluble”. In addition, the solubility in data set [3] (60 °C, isopropyl acetate at 60-65° C., read-out: complete solubility in isopropyl acetate) was approximately 125 mg/mL (≈ 358 mM); in data set [3] (dichloromethane, read-out: solubility in dichloromethane) it was more than 700 mg/mL; in data set [3] (55° C. tetrahydrofuran, read-out: solubility in tetrahydrofuran), more than 600 mg/mL; in data set [3] (ethyl acetate at 60° C., read-out: solubility in ethyl acetate) it was approximately 150 mg/mL (≈ 429 mM).

The values above are taken from patent US7332605B2, “Process for the synthesis of CXCR4 antagonist” (AnorMED, Inc., priority 2004, dated 2008).
